Data on 20 molecules can be found in paper PMC12756739 (ACS Omega, 2025).

Like-named read-outs stand apart in the source and are kept apart here. Some results are limits rather than exact numbers.

Assay [1] deals with tubulin polymerization. Conditions: read-out: antitubulin polymerization IC50; ref Aboelez et al.; cited from earlier work.
A further assay concerns EGFR^T790M. Conditions: read-out: IC50 EGFR^T790M; ref Aboelez et al.; cited from earlier work.
The subject of the next assay is EGFR^WT. Conditions: read-out: IC50 EGFR^WT; ref Aboelez et al.; cited from earlier work.
In another assay the target is T1, COX-2 enzyme (Homo sapiens, UniProt P35354).
T1 sequence (P35354 18-604): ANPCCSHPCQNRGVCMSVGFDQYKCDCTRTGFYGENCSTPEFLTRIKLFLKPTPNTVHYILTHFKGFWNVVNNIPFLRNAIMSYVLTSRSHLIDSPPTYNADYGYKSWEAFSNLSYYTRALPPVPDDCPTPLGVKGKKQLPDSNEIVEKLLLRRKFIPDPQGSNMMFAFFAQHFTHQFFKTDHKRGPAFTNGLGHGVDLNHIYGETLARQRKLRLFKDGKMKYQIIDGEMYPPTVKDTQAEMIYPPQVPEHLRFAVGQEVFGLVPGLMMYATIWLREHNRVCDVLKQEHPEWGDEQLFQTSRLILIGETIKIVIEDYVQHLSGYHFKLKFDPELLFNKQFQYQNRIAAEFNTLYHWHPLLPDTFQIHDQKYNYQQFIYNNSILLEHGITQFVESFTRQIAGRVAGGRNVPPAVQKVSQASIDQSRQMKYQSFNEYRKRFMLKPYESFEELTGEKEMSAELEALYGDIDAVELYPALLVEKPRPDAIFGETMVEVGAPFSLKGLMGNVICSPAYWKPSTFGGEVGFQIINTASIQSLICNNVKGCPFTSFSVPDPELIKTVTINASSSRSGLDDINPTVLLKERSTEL
The assay is described as follows: biochemical.

Another assay has as its system MCF-7 cell line. The assay can be described thus: MTT cytotoxicity test, MCF-7 cell line. The format is cell-based. Conditions: Homo sapiens, MCF7, read-out: IC50 (μM) MCF-7. Background: Tetrazolium dyes change colour on reduction, which living cells bring about.
For a further assay, the system named is NIH3T3 cells. The assay can be described thus: MTT cytotoxicity test, NIH3T3 cell line. Conditions: Mus musculus, NIH3T3, read-out: IC50 (μM) NIH3T3. Format: cell-based.
In a further assay the test system is A549 cell line. The assay is described as follows: MTT cytotoxicity test, A549 cell line. Format: cell-based. Conditions: Homo sapiens, A549, read-out: IC50 (μM) A549.
The test system of assay [2] is carbonic anhydrase XII (CA XII). Conditions: ref Fadaly et al.; cited from earlier work.
Assay [3] has as its system carbonic anhydrase IX (CA IX). Conditions: ref Fadaly et al.; cited from earlier work.
The test system of the next assay is HDAC1. Conditions: read-out: IC50 HDAC1; ref Mohamed et al.; cited from earlier work.
The target in another assay is CA IX. The settings on record: read-out: inhibition constant CA IX; ref Mohamed et al.; cited from earlier work.
The next assay concerns HDAC2. The settings on record: read-out: IC50 HDAC2; ref Mohamed et al.; cited from earlier work.
In assay [4] the test system is tubulin polymerization. The settings on record: read-out: IC50 antitubulin polymerization assay; ref Mohamed et al.; cited from earlier work.
The next assay deals with CA XII. The settings on record: read-out: inhibition constant CA XII; ref Mohamed et al.; cited from earlier work.
For another assay, the system named is CDK2. Conditions: ref Abdalla et al.; cited from earlier work.
A further assay relates to CDK6. The settings on record: ref Abdalla et al.; cited from earlier work.
Another assay deals with CDK12. The settings on record: ref Abdalla et al.; cited from earlier work.
For another assay, the system named is topoisomerase II. The settings on record: ref Ewieda et al.; cited from earlier work.
The next assay has as its system AKT-1. The settings on record: read-out: IC50 AKT-1; ref Abd El-Mawgoud et al.; cited from earlier work.
The test system of another assay is VEGFR-2. Conditions: read-out: IC50 VEGFR-2; ref Abd El-Mawgoud et al.; cited from earlier work.

As usually defined, the IC50 is the concentration at which inhibition is half-maximal. On to `CC(=NNC(=O)c1sc2sc(C(=O)NN=C(C)c3ccccc3)c(N)c2c1N)c1ccccc1` [3,4-diamino-N′2,N′5-bis(1-phenylethylidene)thieno[2,3-b]thiophene-2,5-dicarbohydrazide], for which the half-maximal inhibitory concentration (IC50) in the assay on tubulin polymerization [1] is 5.1 µM; with EGFR^T790M, 0.0246 µM; with EGFR^WT, 0.0281 µM.

As to `O=C(CSc1nnc(NC(=O)c2ccc(Cl)c(Cl)c2)s1)Nc1ccccc1` [3a, 3,4-Dichloro-N-(5-((2-oxo-2-(phenylamino)ethyl)thio)-1,3,4-thiadiazol-2-yl)benzamide], the IC50 at COX-2 enzyme is 2.39 ± 0.104 µM; in the assay with MCF-7 cell line it was above 100 µM; in the assay with NIH3T3 cells, above 100 µM; with A549 cell line, above 100 µM.

On to `O=C(CSc1nnc(NC(=O)c2ccc(Cl)c(Cl)c2)s1)Nc1ccc(C(F)(F)F)cc1` [3b, 3,4-Dichloro-N-(5-((2-oxo-2-((4-(trifluoromethyl)phenyl)amino)ethyl)thio)-1,3,4-thiadiazol-2-yl)benzamide], for which the 50% inhibitory concentration (IC50) against COX-2 enzyme was above 1000 µM; in the assay with MCF-7 cell line, above 100 µM; with NIH3T3 cells it was 67.1 ± 2.37 µM; with A549 cell line it was 46.5 ± 1.45 µM.

Consider `O=C(CSc1nnc(NC(=O)c2ccc(Cl)c(Cl)c2)s1)Nc1ccc(Cl)cc1` [3d, 3,4-Dichloro-N-(5-((2-((4-chlorophenyl)amino)-2-oxoethyl)thio)-1,3,4-thiadiazol-2-yl)benzamide], for which the IC50 at COX-2 enzyme is 6.72 ± 0.312 µM; in the assay with MCF-7 cell line it was above 100 µM; in the assay with NIH3T3 cells it was above 100 µM; with A549 cell line, above 100 µM.

Take `NS(=O)(=O)c1ccc(NC(=O)CSc2nnc(NC(=O)c3ccc(Cl)c(Cl)c3)s2)cc1` [3e, 3,4-Dichloro-N-(5-((2-oxo-2-((4-sulfamoylphenyl)amino)ethyl)thio)-1,3,4-thiadiazol-2-yl)benzamide]: the half-maximal inhibitory concentration (IC50) was 0.32 ± 0.014 µM against COX-2 enzyme, 11 ± 0.402 µM in the assay with MCF-7 cell line, 70.8 ± 2.5 µM in the assay on NIH3T3 cells and above 100 µM with A549 cell line.

In the case of `O=C(CSc1nnc(NC(=O)c2ccc(Cl)cc2)s1)Nc1ccccc1` [3f, 4-Chloro-N-(5-((2-oxo-2-(phenylamino)ethyl)thio)-1,3,4-thiadiazol-2-yl)benzamide], the IC50 was 0.874 ± 0.039 µM against COX-2 enzyme, above 100 µM in the assay with MCF-7 cell line, above 100 µM in the assay on NIH3T3 cells and above 100 µM with A549 cell line.

`O=C(CSc1nnc(NC(=O)c2ccc(Cl)cc2)s1)Nc1ccc(C(F)(F)F)cc1` [3g, 4-Chloro-N-(5-((2-oxo-2-((4-(trifluoromethyl)phenyl)amino)ethyl)thio)-1,3,4-thiadiazol-2-yl)benzamide]: the IC50 is above 100 µM at COX-2 enzyme, 27.1 ± 1.26 µM in the assay with MCF-7 cell line, above 100 µM in the assay on NIH3T3 cells and 21.1 ± 0.996 µM in the assay on A549 cell line.

For the molecule `O=C(CSc1nnc(NC(=O)c2ccc(Cl)cc2)s1)Nc1ccc(Cl)cc1` [3i, 4-Chloro-N-(5-((2-((4-chlorophenyl)amino)-2-oxoethyl)thio)-1,3,4-thiadiazol-2-yl)benzamide], the IC50 on COX-2 enzyme was 3.78 ± 0.177 µM; in the assay on MCF-7 cell line, 12.1 ± 0.589 µM; in the assay on NIH3T3 cells, 24.9 ± 1.18 µM; in the assay on A549 cell line, above 100 µM.

Take `O=C(CSc1nnc(NC(=O)c2ccc(F)cc2)s1)Nc1ccccc1` [3k, 4-Fluoro-N-(5-((2-oxo-2-(phenylamino)ethyl)thio)-1,3,4-thiadiazol-2-yl)benzamide]: the half-maximal inhibitory concentration (IC50) is above 1000 µM against COX-2 enzyme, above 100 µM with MCF-7 cell line, above 100 µM with NIH3T3 cells and 69.1 ± 2.8 µM in the assay on A549 cell line.

Take `O=C(CSc1nnc(NC(=O)c2ccc(F)cc2)s1)Nc1ccc(C(F)(F)F)cc1` [3l, 4-Fluoro-N-(5-((2-oxo-2-((4-(trifluoromethyl)phenyl)amino)ethyl)thio)-1,3,4-thiadiazol-2-yl)benzamide]: the IC50 is 0.974 ± 0.045 µM on COX-2 enzyme (read-out: COX-2 IC50, fluorometric kit, 25 °C); 30.5 ± 1.37 µM with MCF-7 cell line; 46.2 ± 1.82 µM in the assay on NIH3T3 cells; 41.1 ± 1.96 µM in the assay with A549 cell line.

With `O=C(CSc1nnc(NC(=O)c2ccc(F)cc2)s1)Nc1ccc(Cl)cc1` [3n, 4-Fluoro-N-(5-((2-((4-chlorophenyl)amino)-2-oxoethyl)thio)-1,3,4-thiadiazol-2-yl)benzamide], the IC50 against COX-2 enzyme is 0.721 ± 0.03 µM; in the assay with MCF-7 cell line it was above 100 µM; in the assay on NIH3T3 cells it was above 100 µM; with A549 cell line, above 100 µM.

Consider `COc1ccc(C(=O)Nc2nnc(SCC(=O)Nc3ccccc3)s2)cc1` [3p, 4-Methoxy-N-(5-((2-oxo-2-(phenylamino)ethyl)thio)-1,3,4-thiadiazol-2-yl)benzamide], for which the IC50 against COX-2 enzyme was above 1000 µM; with MCF-7 cell line, above 100 µM; in the assay with NIH3T3 cells, above 100 µM; with A549 cell line, above 100 µM.

With `COc1ccc(C(=O)Nc2nnc(SCC(=O)Nc3ccc(C(F)(F)F)cc3)s2)cc1` [3r, 4-Methoxy-N-(5-((2-oxo-2-((4-(trifluoromethyl)phenyl)amino)ethyl)thio)-1,3,4-thiadiazol-2-yl)benzamide], the IC50 was above 100 µM on COX-2 enzyme, 43.1 ± 2.06 µM in the assay with MCF-7 cell line, 47.6 ± 1.77 µM with NIH3T3 cells and above 100 µM in the assay with A549 cell line.

For the molecule `COc1ccc(C(=O)Nc2nnc(SCC(=O)Nc3ccc(Cl)cc3)s2)cc1` [3t, 4-Methoxy-N-(5-((2-oxo-2-((4-chlorophenyl)amino)ethyl)thio)-1,3,4-thiadiazol-2-yl)benzamide], the IC50 against COX-2 enzyme, in the assay on MCF-7 cell line, in the assay on NIH3T3 cells and in the assay on A549 cell line was above 100 µM each time.

In the case of `COc1ccc(-c2csc(N3N=C(c4nnn(-c5ccc(S(N)(=O)=O)cc5)c4C)CC3c3ccc(OC)cc3)n2)cc1` (stereo not drawn) [4-(4-(5-(4-methoxyphenyl)-1-(4-(4-methoxyphenyl)thiazol-2-yl)-4,5-dihydro-1H-pyrazol-3-yl)-5-methyl-1H-1,2,3-triazol-1-yl)benzenesulfonamide], the “activity against CA XII” value in [2] is 0.031 µM. The “activity against CA IX” value in assay [3] was 0.025 µM.

`NS(=O)(=O)c1ccc(NC(=O)COc2ccc(/C=C/C(=O)c3ccc(Br)cc3)cc2)cc1` [(E)-2-(4-(3-(4-bromophenyl)-3-oxoprop-1-en-1-yl)phenoxy)-N-(4-sulfamoylphenyl)acetamide]: the IC50 is 0.134 µM in the assay with HDAC1, 0.0663 µM with HDAC2 and 2.56 µM with tubulin polymerization [4]. For the same molecule, the Ki on CA IX is 0.072 ± 0.00258 µM; on CA XII it was 0.0508 ± 0.00258 µM.

Consider `Nc1ccccc1C(=O)O` [Anthranilic acid], for which the “activity against CDK2” value in the assay on CDK2 was 0.67 µM. In the assay with CDK6, the “activity against CDK6” value was 0.48 µM. Moreover, the “activity against CDK12” value in the assay on CDK12 was 0.82 µM.

Regarding `Br.CCOC(=O)C1=C(c2ccccc2)N=C2SC=C(c3ccc(C)cc3)N2C1c1ccc(Br)cc1` (stereo not drawn) [Ethyl 5-(4-bromophenyl)-3-(4-methylphenyl)-7-phenyl-5H-thiazolo[3,2-a]pyrimidine-6-carboxylate hydrobromide], the activity against topoisomerase in the assay on topoisomerase II is 0.94 µM.

On to `Nc1nc2c3c(N)c(-c4nnc(NC(=O)c5ccccc5)s4)sc3ncn2n1` [N-(5-(2,9-diaminothieno[3,2-e]1,3,4-triazolo[1,5-c]pyrimidin-8-yl)-1,3,4-thiadiazol-2-yl)benzamide], for which the results for the IC50 in the assay on AKT-1 and with VEGFR-2 were 0.452 µM and 0.164 µM, respectively.

`COc1cccc2c1C(=O)c1c(O)c3c(c(O)c1C2=O)C[C@@](O)(C(=O)CO)C[C@@H]3O[C@H]1C[C@H](N)[C@H](O)[C@H](C)O1` [doxorubicin, reference compound]: in the assay with NIH3T3 cells, the 50% inhibitory concentration (IC50) was above 100 µM.
